Measurements taken from the supplement of paper PMC10307832.

Legend:
Experiment in all cases: relative viability (nuclei count vs DMSO), 5 days (fraction); higher = more cells survive
201T = tested on: 201T
Outline: (§1)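 Lung cancer cell lines were seeded in 1536-well plates and dosed by pin tool the next day, with either a single drug or a fixed anchor-drug dose combined with five library-drug doses (not always all listed) spaced in √10 steps. Five days later, one step fixed the cells and stained their nuclei (final 0.05% Triton X-100, 1% formaldehyde, 1 ug/ml Hoechst), and nuclei were counted on 4× images. Relative viability is the nuclei count in treated wells divided by the count in vehicle wells, and each value is the median of duplicate plates.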

A-427 = tested on: A-427
Outline: as §1

BEN = tested on: BEN
Outline: as §1

COR-L 105 = tested on: COR-L 105
Outline: as §1

COR-L23 = tested on: COR-L23
Outline: as §1

EKVX = tested on: EKVX
Outline: as §1

HARA = tested on: HARA
Outline: as §1

HCC-15 = tested on: HCC-15
Outline: as §1

HCC-44 = tested on: HCC-44
Outline: as §1

HCC-827 = tested on: HCC-827
Outline: as §1

LK-2 = tested on: LK-2
Outline: as §1

NCI-H1437 = tested on: NCI-H1437
Outline: as §1

NCI-H1666 = tested on: NCI-H1666
Outline: as §1

NCI-H1792 = tested on: NCI-H1792
Outline: as §1

NCI-H1975 = tested on: NCI-H1975
Outline: as §1

NCI-H23 = tested on: NCI-H23
Outline: as §1

NCI-H358 = tested on: NCI-H358
Outline: as §1

NCI-H441 = tested on: NCI-H441
Outline: as §1

NCI-H596 = tested on: NCI-H596
Outline: as §1

NCI-H650 = tested on: NCI-H650
Outline: as §1

NCI-H838 = tested on: NCI-H838
Outline: as §1

SK-MES-1 = tested on: SK-MES-1
Outline: as §1

SW 900 = tested on: SW 900
Outline: as §1

With CC1(C)CCC(c2ccc(Cl)cc2)=C(CN2CCN(c3ccc(C(=O)NS(=O)(=O)c4ccc(N[C@H](CCN5CCOCC5)CSc5ccccc5)c(S(=O)(=O)C(F)(F)F)c4)cc3)CC2)C1 [Navitoclax] + CC(=O)Nc1cccc(-n2c(=O)n(C3CC3)c(=O)c3c(Nc4ccc(I)cc4F)n(C)c(=O)c(C)c32)c1 [Trametinib] (partner 0.02 µM) the relative viability (201T; first compound 0.005 µM) was 0.715, the relative viability (201T; first compound 0.01581 µM) was 0.784 and the relative viability (201T; first compound 0.05 µM) was 0.741. For the same molecule, the relative viability (201T; first compound 0.1581 µM) was 0.7, the relative viability (201T; first compound 0.5 µM) was 0.726 and the relative viability (A-427; first compound 0.005 µM) was 0.724. It also gave a relative viability (A-427; first compound 0.01581 µM) of 0.714, a relative viability (A-427; first compound 0.05 µM) of 0.624 and a relative viability (A-427; first compound 0.1581 µM) of 0.599. For the same molecule, the relative viability (A-427; first compound 0.5 µM) was 0.652, the relative viability (BEN; first compound 0.005 µM) was 1.07 and the relative viability (BEN; first compound 0.01581 µM) was 1.18. For the same molecule, the relative viability (BEN; first compound 0.05 µM) was 0.94, the relative viability (BEN; first compound 0.1581 µM) was 1.05 and the relative viability (BEN; first compound 0.5 µM) was 0.669. The relative viability (COR-L 105; first compound 0.005 µM) was 0.441, the relative viability (COR-L 105; first compound 0.01581 µM) was 0.476 and the relative viability (COR-L 105; first compound 0.05 µM) was 0.428. It also gave a relative viability (COR-L 105; first compound 0.1581 µM) of 0.447, a relative viability (COR-L 105; first compound 0.5 µM) of 0.379 and a relative viability (COR-L23; first compound 0.005 µM) of 0.6. For the same molecule, the relative viability (COR-L23; first compound 0.01581 µM) was 0.601, the relative viability (COR-L23; first compound 0.05 µM) was 0.514 and the relative viability (COR-L23; first compound 0.1581 µM) was 0.577. It also gave a relative viability (COR-L23; first compound 0.5 µM) of 0.61, a relative viability (EKVX; first compound 0.005 µM) of 0.292 and a relative viability (EKVX; first compound 0.01581 µM) of 0.457. For the same molecule, the relative viability (EKVX; first compound 0.05 µM) was 0.334, the relative viability (EKVX; first compound 0.1581 µM) was 0.376 and the relative viability (EKVX; first compound 0.5 µM) was 0.333. It also gave a relative viability (HARA; first compound 0.005 µM) of 0.44, a relative viability (HARA; first compound 0.01581 µM) of 0.638 and a relative viability (HARA; first compound 0.05 µM) of 0.917. For the same molecule, the relative viability (HARA; first compound 0.1581 µM) was 0.587, the relative viability (HARA; first compound 0.5 µM) was 1.06 and the relative viability (HCC-15; first compound 0.005 µM) was 0.329. It also gave a relative viability (HCC-15; first compound 0.01581 µM) of 0.432, a relative viability (HCC-15; first compound 0.05 µM) of 0.332 and a relative viability (HCC-15; first compound 0.1581 µM) of 0.401. It also gave a relative viability (HCC-15; first compound 0.5 µM) of 0.35, a relative viability (HCC-44; first compound 0.005 µM) of 1.1 and a relative viability (HCC-44; first compound 0.01581 µM) of 1.05. For the same molecule, the relative viability (HCC-44; first compound 0.05 µM) was 0.94, the relative viability (HCC-44; first compound 0.1581 µM) was 1.05 and the relative viability (HCC-44; first compound 0.5 µM) was 1.11. It also gave a relative viability (HCC-827; first compound 0.005 µM) of 0.528, a relative viability (HCC-827; first compound 0.01581 µM) of 0.567 and a relative viability (HCC-827; first compound 0.05 µM) of 0.446. The relative viability (HCC-827; first compound 0.1581 µM) was 0.514, the relative viability (HCC-827; first compound 0.5 µM) was 0.55 and the relative viability (LK-2; first compound 0.005 µM) was 0.76. For the same molecule, the relative viability (LK-2; first compound 0.01581 µM) was 0.868, the relative viability (LK-2; first compound 0.05 µM) was 0.922 and the relative viability (LK-2; first compound 0.1581 µM) was 0.807. The relative viability (LK-2; first compound 0.5 µM) was 0.695, the relative viability (NCI-H1437; first compound 0.005 µM) was 0.476 and the relative viability (NCI-H1437; first compound 0.01581 µM) was 0.595. The relative viability (NCI-H1437; first compound 0.05 µM) was 0.359, the relative viability (NCI-H1437; first compound 0.1581 µM) was 0.472 and the relative viability (NCI-H1437; first compound 0.5 µM) was 0.539. The relative viability (NCI-H1666; first compound 0.005 µM) was 0.933, the relative viability (NCI-H1666; first compound 0.01581 µM) was 0.937 and the relative viability (NCI-H1666; first compound 0.05 µM) was 0.928. The relative viability (NCI-H1666; first compound 0.1581 µM) was 0.903, the relative viability (NCI-H1666; first compound 0.5 µM) was 0.931 and the relative viability (NCI-H1792; first compound 0.005 µM) was 0.458. For the same molecule, the relative viability (NCI-H1792; first compound 0.01581 µM) was 0.631, the relative viability (NCI-H1792; first compound 0.1581 µM) was 0.376 and the relative viability (NCI-H1792; first compound 0.5 µM) was 0.388. It also gave a relative viability (NCI-H1975; first compound 0.005 µM) of 0.427, a relative viability (NCI-H1975; first compound 0.01581 µM) of 0.409 and a relative viability (NCI-H1975; first compound 0.05 µM) of 0.236. The relative viability (NCI-H1975; first compound 0.1581 µM) was 0.399, the relative viability (NCI-H1975; first compound 0.5 µM) was 0.316 and the relative viability (NCI-H23; first compound 0.005 µM) was 0.338. The relative viability (NCI-H23; first compound 0.01581 µM) was 0.436, the relative viability (NCI-H23; first compound 0.05 µM) was 0.443 and the relative viability (NCI-H23; first compound 0.1581 µM) was 0.357. It also gave a relative viability (NCI-H23; first compound 0.5 µM) of 0.412, a relative viability (NCI-H358; first compound 0.005 µM) of 0.131 and a relative viability (NCI-H358; first compound 0.01581 µM) of 0.148. For the same molecule, the relative viability (NCI-H358; first compound 0.05 µM) was 0.114, the relative viability (NCI-H358; first compound 0.1581 µM) was 0.133 and the relative viability (NCI-H358; first compound 0.5 µM) was 0.146. For the same molecule, the relative viability (NCI-H441; first compound 0.005 µM) was 0.534, the relative viability (NCI-H441; first compound 0.01581 µM) was 0.616 and the relative viability (NCI-H441; first compound 0.05 µM) was 0.349. It also gave a relative viability (NCI-H441; first compound 0.1581 µM) of 0.448, a relative viability (NCI-H441; first compound 0.5 µM) of 0.553 and a relative viability (NCI-H596; first compound 0.005 µM) of 0.796. It also gave a relative viability (NCI-H596; first compound 0.01581 µM) of 1.22, a relative viability (NCI-H596; first compound 0.05 µM) of 0.693 and a relative viability (NCI-H596; first compound 0.1581 µM) of 0.79. The relative viability (NCI-H596; first compound 0.5 µM) was 0.776, the relative viability (NCI-H650; first compound 0.005 µM) was 0.907 and the relative viability (NCI-H650; first compound 0.01581 µM) was 1.2. For the same molecule, the relative viability (NCI-H650; first compound 0.05 µM) was 0.872, the relative viability (NCI-H650; first compound 0.1581 µM) was 1.09 and the relative viability (NCI-H650; first compound 0.5 µM) was 0.878. It also gave a relative viability (NCI-H838; first compound 0.005 µM) of 0.422, a relative viability (NCI-H838; first compound 0.01581 µM) of 0.639 and a relative viability (NCI-H838; first compound 0.05 µM) of 0.51. It also gave a relative viability (NCI-H838; first compound 0.1581 µM) of 0.559, a relative viability (NCI-H838; first compound 0.5 µM) of 0.555 and a relative viability (SK-MES-1; first compound 0.005 µM) of 0.516. It also gave a relative viability (SK-MES-1; first compound 0.01581 µM) of 0.681, a relative viability (SK-MES-1; first compound 0.05 µM) of 0.547 and a relative viability (SK-MES-1; first compound 0.1581 µM) of 0.591. The relative viability (SK-MES-1; first compound 0.5 µM) was 0.654, the relative viability (SW 900; first compound 0.005 µM) was 0.706 and the relative viability (SW 900; first compound 0.01581 µM) was 0.981. For the same molecule, the relative viability (SW 900; first compound 0.1581 µM) was 0.828 and the relative viability (SW 900; first compound 0.5 µM) was 0.81.
